From paper PMC6328172, “5-HT2 receptor binding, functional activity and selectivity in N-benzyltryptamines” (PLoS ONE, 2019) come the findings set out here.

Read-outs that look alike come from different tables or passages of the source.

In test [1] the target is T1, human 5-HT2A receptor (Homo sapiens, UniProt P28223).
T1 construct: expressed in transfected cells; host or cells: CHO (CHO-5-HT2A cell line)
The experiment in a line: Competition binding to the human 5-HT2A receptor ([3H]ketanserin, CHO-5-HT2A membranes). The settings on record: for Selectivity 5-HT2A/2C (binding): from Ki values, Table 1; for Ki: human receptor, [3H]ketanserin displacement, no unit in the table, nM, read-out: 5-HT2A Ki (in parentheses) (converted).

Test [2] has as its target T2, human 5-HT2C receptor (Homo sapiens, UniProt P28335).
T2 construct: expressed in transfected cells; host or cells: HeLa (HeLa-5-HT2C cell line)
T2 sequence (P28335 33-458): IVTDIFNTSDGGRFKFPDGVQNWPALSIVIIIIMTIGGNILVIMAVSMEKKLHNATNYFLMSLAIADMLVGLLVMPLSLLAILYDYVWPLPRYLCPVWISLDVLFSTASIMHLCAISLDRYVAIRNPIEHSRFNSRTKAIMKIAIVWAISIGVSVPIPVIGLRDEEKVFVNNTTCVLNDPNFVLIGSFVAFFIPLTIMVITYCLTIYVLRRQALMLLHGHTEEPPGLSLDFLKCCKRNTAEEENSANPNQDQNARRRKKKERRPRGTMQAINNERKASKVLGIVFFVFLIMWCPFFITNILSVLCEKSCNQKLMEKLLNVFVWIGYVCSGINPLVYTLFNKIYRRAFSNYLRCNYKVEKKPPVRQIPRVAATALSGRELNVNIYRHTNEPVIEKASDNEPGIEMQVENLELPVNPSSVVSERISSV
Kind of test: Competition binding to the human 5-HT2C receptor ([3H]mesulergine, HeLa-5-HT2C membranes). The settings on record: for Selectivity 5-HT2C/2A (binding, in parentheses): from Ki values, Table 1; for Ki: human receptor, [3H]mesulergine displacement, no unit in the table, nM, read-out: 5-HT2C Ki (in parentheses) (converted).

For test [3], the target named is T1, human 5-HT2A receptor. Kind of test: Ca2+ mobilization in CHO h5-HT2A cells. The settings on record: for Selectivity 5-HT2A/2C (functional): from EC50 values, Table 2; for Emax: relative efficacy, % of response to 5-HT. It counts as cell-based.
In test [4] the target is T2, human 5-HT2C receptor. The experiment in a line: Ca2+ mobilization in HeLa h5-HT2C cells. It counts as cell-based. Particulars: for EC50: no unit in the table, nM; for Emax: HeLa, read-out: 5-HT2C % Emax; for Selectivity 5-HT2C/2A (functional, in parentheses): from EC50 values, Table 2. (In general: Calcium flux is commonly read through the fluorescence of an indicator in the cells.)

Test [5] addresses human 5-HT2B receptor (Homo sapiens, UniProt P41595). Kind of test: Competition binding to the human 5-HT2B receptor ([3H]LSD, CHO-5-HT2B membranes).
Where [6] appears, read: Ca2+ mobilization, no unit in the table, nM, read-out: 5-HT2A EC50 (in parentheses) (converted).
The mark [7] stands for this setting: Ca2+ mobilization, read-out: 5-HT2C EC50 (in parentheses) (converted).

human 5-HT2B receptor, sequence (P41595 whole entry): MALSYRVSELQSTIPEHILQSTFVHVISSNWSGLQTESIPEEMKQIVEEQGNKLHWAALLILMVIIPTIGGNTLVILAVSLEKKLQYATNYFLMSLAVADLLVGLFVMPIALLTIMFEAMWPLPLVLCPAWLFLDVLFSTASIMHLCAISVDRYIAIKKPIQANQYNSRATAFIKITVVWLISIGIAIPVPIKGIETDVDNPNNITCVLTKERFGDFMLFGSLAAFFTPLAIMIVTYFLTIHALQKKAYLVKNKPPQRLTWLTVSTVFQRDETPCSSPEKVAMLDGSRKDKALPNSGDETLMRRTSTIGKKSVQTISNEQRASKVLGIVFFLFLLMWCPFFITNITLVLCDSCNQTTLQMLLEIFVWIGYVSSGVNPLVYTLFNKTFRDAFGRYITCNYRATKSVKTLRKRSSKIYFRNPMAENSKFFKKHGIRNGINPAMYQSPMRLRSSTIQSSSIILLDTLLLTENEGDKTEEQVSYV
T1 sequence (P28223 whole entry): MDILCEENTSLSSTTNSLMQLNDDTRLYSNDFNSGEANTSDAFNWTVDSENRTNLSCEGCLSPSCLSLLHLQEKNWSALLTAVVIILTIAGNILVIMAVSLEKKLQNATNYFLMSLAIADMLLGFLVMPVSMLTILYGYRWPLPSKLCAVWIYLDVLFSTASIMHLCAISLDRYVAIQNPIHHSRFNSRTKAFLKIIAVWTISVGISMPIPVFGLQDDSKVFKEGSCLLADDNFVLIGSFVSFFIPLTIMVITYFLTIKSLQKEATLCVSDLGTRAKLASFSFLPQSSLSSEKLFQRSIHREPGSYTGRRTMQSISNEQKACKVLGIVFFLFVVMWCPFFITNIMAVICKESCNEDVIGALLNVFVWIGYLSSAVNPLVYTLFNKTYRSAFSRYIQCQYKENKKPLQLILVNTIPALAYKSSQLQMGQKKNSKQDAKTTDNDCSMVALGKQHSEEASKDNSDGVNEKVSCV

On to `CCOc1ccc(CNCCc2c[nH]c3ccccc23)cc1` [Compound 15, N-(4-Ethoxybenzyl)-[2-(1H-indol-3-yl)ethyl]amine], for which the “Selectivity 5-HT2A/2C (binding)” value in test [1] came out at 2.66. In addition, the inhibition constant (Ki) in test [1] is 275 nM; in test [2], 741 nM; in test [5] it was 0.269 µM. Besides, the “Selectivity 5-HT2C/2A (binding, in parentheses)” value in test [2] was found to be 0.36. In addition, the EC50 in test [3] (setting [6]) was 363 nM; in test [4] (setting [7]), 11.7 nM. Further, in test [3], the “Selectivity 5-HT2A/2C (functional)” value is 0.032. Moreover, the Emax in test [3] came to 36.7 ± 6.13%; in test [4] it was 93.2 ± 3.26%. In addition, the “Selectivity 5-HT2C/2A (functional, in parentheses)” value in test [4] worked out at 30.9.
`Clc1ccc(CNCCc2c[nH]c3ccccc23)cc1` [Compound 16, N-(4-Chlorobenzyl)-[2-(1H-indol-3-yl)ethyl]amine]: in test [1], the “Selectivity 5-HT2A/2C (binding)” value was 1.37 and the Ki is 708 nM. Moreover, in test [2], the “Selectivity 5-HT2C/2A (binding, in parentheses)” value was 0.73 and the Ki is 955 nM. Also, the EC50 in test [3] (setting [6]) was 58.9 nM. In test [3], the “Selectivity 5-HT2A/2C (functional)” value came to 0.85 and the Emax stood at 80 ± 4.54%. Further, in test [4] (setting [7]), the EC50 was 50.1 nM. Further, in test [4], the Emax was determined as 98.3 ± 4.18% and the “Selectivity 5-HT2C/2A (functional, in parentheses)” value was found to be 1.17. Moreover, affinity in test [5] was put at a Ki of 0.224 µM.
Consider `Brc1ccc(CNCCc2c[nH]c3ccccc23)cc1` [Compound 17, N-(4-Bromobenzyl)-[2-(1H-indol-3-yl)ethyl]amine], for which, in test [1], the “Selectivity 5-HT2A/2C (binding)” value is 1.09 and the Ki was 1000 nM. In addition, in test [2], the “Selectivity 5-HT2C/2A (binding, in parentheses)” value came out at 0.92 and the Ki is 1070 nM. Moreover, the “functional activity at h5-HT2A receptor (in words)” value in test [3] (Ca2+ mobilization) is recorded as “too low for quantification”. For the same compound, the EC50 in test [4] (setting [7]) was 6760 nM. Moreover, in test [4], the Emax turned out to be 110 ± 4.3%. The same compound had a Ki in test [5] of 0.263 µM.
For the compound `COc1cccc(CNCCc2c[nH]c3ccccc23)c1O` [Compound 19, N-(2-Hydroxy-3-methoxybenzyl)-[2-(1H-indol-3-yl)ethyl]amine], in test [1], the “Selectivity 5-HT2A/2C (binding)” value was 0.58 and the Ki was 26.3 nM. For the same compound, in test [2], the “Selectivity 5-HT2C/2A (binding, in parentheses)” value came out at 1.72 and the Ki is 16.6 nM. In addition, the EC50 in test [3] (setting [6]) is 49 nM. For the same compound, in test [3], the “Selectivity 5-HT2A/2C (functional)” value stood at 1.91 and the Emax is 26.2 ± 2.34%. Moreover, the EC50 in test [4] (setting [7]) was 93.3 nM. Besides, in test [4], the Emax was 107 ± 6.91% and the “Selectivity 5-HT2C/2A (functional, in parentheses)” value turned out to be 0.52. Also, in test [5], the affinity, expressed as Ki, was 0.0132 µM.
With `Oc1c(Br)cccc1CNCCc1c[nH]c2ccccc12` [Compound 21, N-(3-Bromo-2-hydroxybenzyl)-[2-(1H-indol-3-yl)ethyl]amine], in test [1], the “Selectivity 5-HT2A/2C (binding)” value is on record as 9.8. In addition, the values for the Ki in test [1], in test [2] and in test [5] were 14.1 nM, 138 nM and 0.0155 µM, respectively. Besides, the “Selectivity 5-HT2C/2A (binding, in parentheses)” value in test [2] is given as 0.10. For the same compound, the “functional activity at h5-HT2A receptor (in words)” value in test [3] (Ca2+ mobilization) was “extremely weak h5-HT2A partial agonist”. Besides, the “5-HT2A pEC50” value in test [3] (Ca2+ mobilization, pEC50 ± SEM) is reported as 4.80. The EC50 in test [3] (Ca2+ mobilization, pEC50 ± SEM, read-out: 5-HT2A pEC50 (converted)) is 15800 nM; in test [3] (setting [6]), 15800 nM; in test [4] (5-HT2C EC50 (in parentheses), Ca2+ mobilization), 27 nM; in test [4] (setting [7]), 27.5 nM. For the same compound, the “Selectivity 5-HT2A/2C (functional)” value in test [3] is listed as 0.0017. Further, the Emax came to 40.4 ± 6.23% in test [3] and 98.8 ± 2.83% in test [4]. The “times less potent than lorcaserin” value in test [4] (5-HT2C functional potency) is given as “about 3 times”. Further, in test [4] (Ca2+ mobilization), the “functional activity at h5-HT2C receptor (in words)” value is reported as “full agonist”. The “Selectivity 5-HT2C/2A (functional, in parentheses)” value in test [4] was 575.
With `Oc1c(F)cccc1CNCCc1c[nH]c2ccccc12` [Compound 22, N-(3-Fluoro-2-hydroxybenzyl)-[2-(1H-indol-3-yl)ethyl]amine], the “Selectivity 5-HT2A/2C (binding)” value in test [1] is given as 0.82. The inhibition constant Ki in test [1] is 209 nM; in test [2], 178 nM; in test [5], 0.129 µM. The “Selectivity 5-HT2C/2A (binding, in parentheses)” value in test [2] amounted to 1.22. Further, the EC50 in test [3] (setting [6]) is 162 nM; in test [4] (setting [7]) it was 17 nM. Also, the “Selectivity 5-HT2A/2C (functional)” value in test [3] is 0.105. Moreover, the figures for the Emax in test [3] and in test [4] were 53.6 ± 4.49% and 104 ± 4.96%, respectively. In test [4], the “Selectivity 5-HT2C/2A (functional, in parentheses)” value is 9.55.
Turning to `Cc1ccc(O)c(CNCCc2c[nH]c3ccccc23)c1` [Compound 23, N-(2-Hydroxy-5-methylbenzyl)-[2-(1H-indol-3-yl)ethyl]amine], in test [1], the “Selectivity 5-HT2A/2C (binding)” value stood at 0.36 and the Ki is 741 nM. Further, in test [2], the “Selectivity 5-HT2C/2A (binding, in parentheses)” value was found to be 2.77 and the Ki is 269 nM. Further, the EC50 in test [3] (setting [6]) is 110 nM. For the same compound, in test [3], the “Selectivity 5-HT2A/2C (functional)” value worked out at 0.91 and the Emax stood at 43.6 ± 0.9%. In addition, the EC50 in test [4] (setting [7]) was 100 nM. In test [4], the Emax stood at 89.4 ± 3.86% and the “Selectivity 5-HT2C/2A (functional, in parentheses)” value is 1.10. Besides, in test [5], affinity was put at a Ki of 0.155 µM.

As a reminder, the Ki is a measure of affinity in units of concentration, obtained from inhibition or displacement. One may read the Emax as the size of the effect at its maximum, as opposed to the concentration needed.
